33 compounds from US20250304576A1 (Cancer Research Technology Limited, priority 2022, published 2025) can be followed below.

The target of one assay is T1, IKBKB (IKKβ) (Homo sapiens, UniProt O14920).
T1 construct: purchased Life Technologies (assay performed by the vendor)
T1 sequence (O14920 1-756): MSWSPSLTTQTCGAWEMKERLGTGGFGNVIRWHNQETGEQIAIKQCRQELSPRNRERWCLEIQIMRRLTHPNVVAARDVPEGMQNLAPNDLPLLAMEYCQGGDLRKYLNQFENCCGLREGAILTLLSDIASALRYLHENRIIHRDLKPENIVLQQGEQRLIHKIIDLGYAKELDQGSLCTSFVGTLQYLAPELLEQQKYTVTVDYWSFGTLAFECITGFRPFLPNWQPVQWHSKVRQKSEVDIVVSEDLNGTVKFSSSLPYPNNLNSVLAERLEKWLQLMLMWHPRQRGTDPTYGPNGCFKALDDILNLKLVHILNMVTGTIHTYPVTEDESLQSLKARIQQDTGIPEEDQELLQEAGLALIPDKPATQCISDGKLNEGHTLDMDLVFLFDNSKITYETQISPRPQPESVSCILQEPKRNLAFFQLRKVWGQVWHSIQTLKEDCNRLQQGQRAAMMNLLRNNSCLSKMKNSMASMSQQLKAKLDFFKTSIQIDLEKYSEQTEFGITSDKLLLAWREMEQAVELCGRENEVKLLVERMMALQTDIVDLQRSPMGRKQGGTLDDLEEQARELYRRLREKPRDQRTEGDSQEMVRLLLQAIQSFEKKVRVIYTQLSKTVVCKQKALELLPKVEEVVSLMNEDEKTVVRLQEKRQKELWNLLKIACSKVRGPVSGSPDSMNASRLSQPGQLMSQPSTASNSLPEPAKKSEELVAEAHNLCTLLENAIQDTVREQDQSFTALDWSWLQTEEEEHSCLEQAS
Briefly: Z'-LYTE IKKβ assay (Life Technologies). Format: biochemical.
Details: not given
Here is the method:
IKKα and IKKβ inhibitory activity was determined using three different assays: a dissociation enhanced ligand fluorescent immunoassay (DELFIA) based on the protocol of HTScan™ IKKβ Kinase Assay (Cell Signaling Technology, USA); an Adapta IKKα assay (performed by Life Technologies); a Z′-LYTE™ IKKβ assay (performed by Life Technologies).
The reaction was performed in low volume NBS, black 384-well plates (Corning model 4514).
The test compounds were screened in 1% DMSO (final) in the well. For 10 point titrations, 3-fold serial dilutions were conducted from the starting concentration of 50 mM.
The 2× IKBKB (IKKβ)/Ser/Thr 05 mixture was prepared in 50 mM HEPES pH 7.5, 0.01% BRIJ-35, 10 mM MgCl2, 1 mM EGTA. The final 10 μL Kinase Reaction consisted of 0.62-4 ng IKBKB (IKKβ) and 2 μM Ser/Thr 05 in 50 mM HEPES pH 7.5, 0.01% BRIJ-35, 10 mM MgCl2, 1 mM EGTA.
5 μL of 2× Kinase reaction was incubated with 2.5 μL of ATP solution diluted to a 4× working concentration in Kinase Buffer (50 mM HEPES pH 7.5, 0.01% BRIJ-35, 10 mM MgCl2, 1 mM EGTA) in the presence of […] of 100× test compound in 100% DMSO and 2.4 μL of Kinase buffer.
The resulting kinase reaction was allowed to incubate for 1 hour at room temperature before 5 μL of a 1:64 dilution of Development Reagent B was added and the resulting Development Reaction was incubated for another hour at room temperature. Then the plate was read on a fluorescence plate reader and the data analysed.
A ratiometric method, which calculated the Emission Ratio of donor emission (i.e. coumarin) to acceptor emission (i.e. fluorescein) after excitation of the donor fluorophore at 400 nm, was used to quantitate reaction progress, as shown in the equation below.
For `C#Cc1cc(-c2ccnc3[nH]ccc23)cc2c(N)n[nH]c12` [Example 200, 7-Ethynyl-5-(1H-pyrrolo[2,3-b]pyridin-4-yl)-1H-indazol-3-amine], the midpoint of inhibition, the IC50, lay at 158 nM.
In turn, `CC(C)(C)C#Cc1cc(-c2ccnc3[nH]ccc23)cc2c(N)n[nH]c12` [Example 201, 7-(3,3-Dimethylbut-1-yn-1-yl)-5-(1H-pyrrolo[2,3-b]pyridin-4-yl)-1H-indazol-3-amine] displayed an IC50 of 1200 nM.
The compound `Nc1n[nH]c2c(C#CC3CC3)cc(-c3ccnc4[nH]ccc34)cc12` [Example 202, 7-(Cyclopropylethynyl)-5-(1H-pyrrolo[2,3-b]pyridin-4-yl)-1H-indazol-3-amine] had an IC50 of 470 nM.
Consider `Nc1n[nH]c2c(C#CC3CCCC3)cc(-c3ccnc4[nH]ccc34)cc12` [Example 203, 7-(Cyclopentylethynyl)-5-(1H-pyrrolo[2,3-b]pyridin-4-yl)-1H-indazol-3-amine], for which the midpoint of inhibition, the IC50, lay at 1530 nM.
On the same count and under the same terms, then `Nc1n[nH]c2c(C#CC3CCCCC3)cc(-c3ccnc4[nH]ccc34)cc12` [Example 204, 7-(Cyclohexylethynyl)-5-(1H-pyrrolo[2,3-b]pyridin-4-yl)-1H-indazol-3-amine], with 13500 nM; and `CC(C)(O)C#Cc1cc(-c2ccnc3[nH]ccc23)cc2c(N)n[nH]c12` [Example 206, 4-(3-Amino-5-(1H-pyrrolo[2,3-b]pyridin-4-yl)-1H-indazol-7-yl)-2-methylbut-3-yn-2-ol], with 294 nM; and `Nc1n[nH]c2c(C#CCCCN3CCOCC3)cc(-c3ccnc4[nH]ccc34)cc12` [Example 210, 7-(5-Morpholinopent-1-yn-1-yl)-5-(1H-pyrrolo[2,3-b]pyridin-4-yl)-1H-indazol-3-amine], with 1030 nM.
The same measure, in the same setting: then `Nc1n[nH]c2c(C#CCCCN3CCCCC3)cc(-c3ccnc4[nH]ccc34)cc12` [Example 212, 7-(5-(Piperidin-1-yl)pent-1-yn-1-yl)-5-(1H-pyrrolo[2,3-b]pyridin-4-yl)-1H-indazol-3-amine], with 1140 nM.
Still for that read-out and setting: then `Nc1n[nH]c2ccc(-c3ccnc4[nH]c(C5CC5)cc34)cc12` [Example 218, 5-(2-Cyclopropyl-1H-pyrrolo[2,3-b]pyridin-4-yl)-1H-indazol-3-amine], with 17 nM; and `Nc1n[nH]c2ccc(-c3ccnc4[nH]c(C5CCCCC5)cc34)cc12` [Example 219, 5-(2-Cyclohexyl-1H-pyrrolo[2,3-b]pyridin-4-yl)-1H-indazol-3-amine], with 280 nM.
For the compound `CC(C)(C)Cc1cc2c(-c3ccc4[nH]nc(N)c4c3)ccnc2[nH]1` [Example 220, 5-(2-Neopentyl-1H-pyrrolo[2,3-b]pyridin-4-yl)-1H-indazol-3-amine], half-maximal inhibition (IC50) required 483 nM.
On to `Nc1n[nH]c2ccc(-c3ccnc4[nH]c(CC5CCCCC5)cc34)cc12` [Example 221, 5-(2-(Cyclohexylmethyl)-1H-pyrrolo[2,3-b]pyridin-4-yl)-1H-indazol-3-amine], for which half-maximal inhibition (IC50) required 655 nM.
The same measure, in the same setting: the result for `Nc1n[nH]c2ccc(-c3ccnc4[nH]c(CCC5CCCCC5)cc34)cc12` [Example 222, 5-(2-(2-Cyclohexylethyl)-1H-pyrrolo[2,3-b]pyridin-4-yl)-1H-indazol-3-amine] reads 268 nM.

The assay is the same for the next values; noted with them: Life Technologies assay.
Regarding `CC(C)(C)C#Cc1c(-c2ccc3[nH]nc(N)c3c2)ccnc1N` [Example 72, 5-(2-Amino-3-(3,3-dimethylbut-1-yn-1-yl)pyridine-4-yl)-1H-indazol-3-amine], the half-maximal inhibitory concentration (IC50) is 65 nM.
In turn, `Nc1nccc(-c2ccc3[nH]nc(N)c3c2)c1C#CC1CCCC1` [Example 73, 5-(2-Amino-3-(cyclopentylethynyl)pyridine-4-yl)-1H-indazol-3-amine] registered an IC50 of 206 nM.
`Nc1nccc(-c2ccc3[nH]nc(N)c3c2)c1C#CC1CCCCC1` [Example 74, 5-(2-Amino-3-(cyclohexylethynyl)pyridine-4-yl)-1H-indazol-3-amine] displayed an IC50 of 342 nM. Compared with the last compound, the IC50 is about 1.7-fold higher.
`Nc1nccc(-c2ccc3[nH]nc(N)c3c2)c1C#Cc1ccccc1` [Example 75, 5-(2-Amino-3-(phenylethynyl)pyridine-4-yl)-1H-indazol-3-amine]: it took 101 nM to reach half-maximal inhibition (IC50).
The same measure, in the same setting: then `Nc1nccc(-c2ccc3[nH]nc(N)c3c2)c1C#CCO` [Example 83, 3-(2-Amino-4-(3-amino-1H-indazol-5-yl)pyridine-3-yl)prop-2-yn-1-ol], with 36 nM.
Still for that read-out and setting: the result for `Nc1nccc(-c2ccc3[nH]nc(N)c3c2)c1C#CCCO` [Example 84, 4-(2-Amino-4-(3-amino-1H-indazol-5-yl)pyridine-3-yl)but-3-yn-1-ol] reads 53 nM; that for `Nc1nccc(-c2ccc3[nH]nc(N)c3c2)c1C#CCCCO` [Example 85, 5-(2-Amino-4-(3-amino-1H-indazol-5-yl)pyridine-3-yl)pent-4-yn-1-ol], 25 nM; that for `CC(C)(O)C#Cc1c(-c2ccc3[nH]nc(N)c3c2)ccnc1N` [Example 87, 4-(2-Amino-4-(3-amino-1H-indazol-5-yl)pyridine-3-yl)-2-methylbut-3-yn-2-ol], 36 nM.
In turn, `CC(C)(C)OCC#Cc1c(-c2ccc3[nH]nc(N)c3c2)ccnc1N` [Example 88, 5-(2-Amino-3-(3-(tert-butoxy)prop-1-yn-1-yl)pyridine-4-yl)-1H-indazol-3-amine] displayed an IC50 of 442 nM.
Same read-out and setting: then `Nc1nccc(-c2ccc3[nH]nc(N)c3c2)c1C#CC1(O)CCCCC1` [Example 90, 1-((2-Amino-4-(3-amino-1H-indazol-5-yl)pyridine-3-yl)ethynyl)cyclohexan-1-ol], with 205 nM; and `Nc1nccc(-c2ccc3[nH]nc(N)c3c2)c1C#CC1(O)CCCCCC1` [Example 91, 1-((2-Amino-4-(3-amino-1H-indazol-5-yl)pyridine-3-yl)ethynyl)cycloheptan-1-ol], with 505 nM.
On the same count and under the same terms, then `CC(C)(N)C#Cc1c(-c2ccc3[nH]nc(N)c3c2)ccnc1N` [Example 92, 5-(2-Amino-3-(3-amino-3-methylbut-1-yn-1-yl)pyridin-4-yl)-1H-indazol-3-amine], with 87 nM.
With `Nc1nccc(-c2ccc3[nH]nc(N)c3c2)c1C#CCCN1CCCCC1` [Example 93, 5-(2-Amino-3-(4-(piperidin-1-yl)but-1-yn-1-yl)pyridin-4-yl)-1H-indazol-3-amine], the IC50 came to 254 nM.
Still for that read-out and setting: the result for `Nc1nccc(-c2ccc3[nH]nc(N)c3c2)c1C#CCCCN1CCCCC1` [Example 95, 5-(2-Amino-3-(5-(piperidin-1-yl)pent-1-yn-1-yl)pyridin-4-yl)-1H-indazol-3-amine] reads 545 nM; that for `Nc1nccc(-c2ccc3[nH]nc(N)c3c2)c1C#CCCCN1CCOCC1` [Example 96, 5-(2-Amino-3-(5-morpholinopent-1-yn-1-yl)pyridin-4-yl)-1H-indazol-3-amine], 705 nM; that for `Nc1nccc(-c2ccc3[nH]nc(N)c3c2)c1C#CCCC(=O)N1CCOCC1` [Example 99, 5-(2-Amino-4-(3-amino-1H-indazol-5-yl)pyridine-3-yl)-1-morpholinopent-4-yn-1-one], 264 nM.
On the same count and under the same terms, the result for `Nc1cc(-c2cc(-c3ccccc3)c3[nH]nc(N)c3c2)ccn1` [Example 104, 5-(2-Aminopyridin-4-yl)-7-phenyl-1H-indazol-3-amine] reads 162 nM; that for `Nc1cc(-c2cc(-c3ccoc3)c3[nH]nc(N)c3c2)ccn1` [Example 129, 5-(2-Aminopyridin-4-yl)-7-(furan-3-yl)-1H-indazol-3-amine], 135 nM.
Still for that read-out and setting: then `CC(C)(C)C#Cc1cc(-c2ccnc(N)c2)cc2c(N)n[nH]c12` [Example 137, 5-(2-Aminopyridin-4-yl)-7-(3,3-dimethylbut-1-yn-1-yl)-1H-indazol-3-amine], with 2300 nM; and `CC(C)(O)C#Cc1cc(-c2ccnc(N)c2)cc2c(N)n[nH]c12` [Example 140, 4-(3-Amino-5-(2-aminopyridin-4-yl)-1H-indazol-7-yl)-2-methylbut-3-yn-2-ol], with 3090 nM.
